{
  "source": "patent US9107877B2",
  "about": "“Method of treating onychomycosis” (Polichem SA, priority 2013, dated 2015)",
  "origin": "cited, not measured here",
  "key": {"[1]": {"system": "onychomycosis", "details": "48 weeks of daily topical treatment, 12-week follow up"}, "[2]": {"system": "onychomycosis", "details": "oral, 250 mg tablet a day for 12 weeks"}},
  "data": [
    {"smiles": "Cc1cc(C2CCCCC2)n(O)c(=O)c1", "note": "[ciclopirox]", "values": [
      {"measurement": "Complete cure", "setting": "[1]", "result": "about 13%"},
      {"measurement": "Responders", "setting": "[1]", "result": "~30", "unit": "%"}
    ]},
    {"smiles": "CN(C/C=C/C#CC(C)(C)C)Cc1cccc2ccccc12", "note": "[terbinafine]", "values": [
      {"measurement": "Complete cure, % of patients", "setting": "[2]", "result": 38, "unit": "%"}
    ]}
  ]
}
